Experimental data published in patent publication EP1210344B1, “HETEROPOLYCYCLIC COMPOUNDS AND THEIR USE AS METABOTROPIC GLUTAMATE RECEPTOR ANTAGONISTS” (NPS PHARMACEUTICALS, INC., priority 1999, dated 2001).

Target: chimeric CaR/mGluR5d receptor (Homo sapiens, UniProt P41594)
Assay: CaR/mGluR5d Screening Assay (FLIPR, intracellular calcium)
Type: cell-based
Settings: HEK 293 cells expressing the chimeric CaR/mGluR5d receptor, Fluo-3 fluorescence; read-out: IC50 value in relation to CaR/mGluR5d
Method: HEK 293 cells expressing the chimeric CaR/mGluR5d receptor (clonal cell line hCaR/hmGluR5d_hek6) are plated 24 hours prior to assay at a density of 100,000 cells per well in Collagen I-coated 96-well black, clear bottom plates (Becton Dickenson) in DMEM supplemented with 10% FBS (Hyclone).
On the day of the assay, tissue culture medium is aspirated from the wells of a plate and 80 µL of Assay Buffer (Assay Buffer is: 20 mM HEPES, 146 mM NaCl, 5 mM KCl, 1 mM MgCl2, 1 mM CaCl2, 1 mg/ml BSA, 1 mg/ml glucose, pH 7.4) supplemented with 6 µM of the Ca^2+-sensitive dye, Fluo-3 AM (Molecular Probes) and 0.025% Pluronic (Molecular Probes) is added to each well. The plate is then incubated in the dark for 1 hour at room temperature to efficiently load the cells with Fluo-3. At the end of the incubation, extracellular Fluo-3 is removed by washing the plate with Assay buffer. Assay Buffer is added back to each well (final volume = 160 µL) prior to beginning the assay.
The plate is loaded into a FLIPR robotic device (Molecular Devices) with the laser setting at 0.8 Watts. […] Relative fluorescence intensity (excitation λ = 488 nm / emission λ = 510 nM) is monitored at relevant time intervals throughout the assay period to measure receptor activation and/or inhibition.

Sequence of chimeric CaR/mGluR5d receptor (P41594 580-876, change not shown): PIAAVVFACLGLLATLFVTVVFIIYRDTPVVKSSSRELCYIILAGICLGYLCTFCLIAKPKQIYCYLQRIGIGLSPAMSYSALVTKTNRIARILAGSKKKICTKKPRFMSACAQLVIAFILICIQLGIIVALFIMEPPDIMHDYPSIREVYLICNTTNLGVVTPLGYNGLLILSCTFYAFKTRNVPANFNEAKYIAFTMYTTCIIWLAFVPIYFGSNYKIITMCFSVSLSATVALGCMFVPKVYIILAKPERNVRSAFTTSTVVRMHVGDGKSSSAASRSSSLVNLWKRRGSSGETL
Sequence of chimeric CaR/mGluR5d receptor (P41180 20-610 partner): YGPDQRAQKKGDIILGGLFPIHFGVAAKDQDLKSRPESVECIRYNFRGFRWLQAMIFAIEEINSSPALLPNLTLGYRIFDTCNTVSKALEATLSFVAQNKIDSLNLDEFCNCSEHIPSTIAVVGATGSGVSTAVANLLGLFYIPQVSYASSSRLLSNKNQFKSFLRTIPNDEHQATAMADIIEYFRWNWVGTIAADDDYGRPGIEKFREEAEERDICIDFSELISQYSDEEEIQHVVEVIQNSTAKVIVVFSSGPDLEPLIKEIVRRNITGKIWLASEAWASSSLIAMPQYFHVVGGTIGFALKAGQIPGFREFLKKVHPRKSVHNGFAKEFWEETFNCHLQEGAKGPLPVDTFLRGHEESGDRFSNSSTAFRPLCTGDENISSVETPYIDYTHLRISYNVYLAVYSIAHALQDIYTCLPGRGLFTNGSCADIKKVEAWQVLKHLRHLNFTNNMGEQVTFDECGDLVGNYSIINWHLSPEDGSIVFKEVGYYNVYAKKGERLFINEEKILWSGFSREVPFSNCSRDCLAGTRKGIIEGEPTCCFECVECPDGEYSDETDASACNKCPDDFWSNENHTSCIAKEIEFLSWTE

IC50: 45 nM
SMILES: N#Cc1cccc(-c2nc(-c3ccccn3)co2)c1 [B52, 2-[3-cyanophenyl]-4-[pyridin-2-yl]-1,3-oxazole]
